Measured values taken from ChEMBL document CHEMBL3217410, “New potent, short-linker BODIPY-630/650TM labelled fluorescent adenosine receptor agonists” (Medchemcomm, 2012).
Active and inactive are the calls of the source. The rule behind the calls is not given here.

Assays:
[1] = target: T1, Adenosine receptor A1 (Homo sapiens) (UniProt P30542); experiment: (§1) Agonist activity at human adenosine A1 receptor expressed in CHO cells assessed as Gi-mediated inhibition of forskolin-stimulated SPAP secretion incubated for 10 mins prior to forskolin challenge measured after 5 hrs by spectrophotometry; format: functional, cell-based
T1 sequence (whole entry): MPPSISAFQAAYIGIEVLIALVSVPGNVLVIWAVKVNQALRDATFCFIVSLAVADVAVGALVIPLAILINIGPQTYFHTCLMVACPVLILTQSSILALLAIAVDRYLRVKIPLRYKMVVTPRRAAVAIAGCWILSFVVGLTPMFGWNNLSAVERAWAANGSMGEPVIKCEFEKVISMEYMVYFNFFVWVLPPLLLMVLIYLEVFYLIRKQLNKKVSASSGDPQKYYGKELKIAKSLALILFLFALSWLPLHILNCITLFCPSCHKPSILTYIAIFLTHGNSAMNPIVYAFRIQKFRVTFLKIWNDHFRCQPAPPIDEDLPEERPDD

[2] = target: T2, Adenosine receptor A1 (Homo sapiens, UniProt P30542); experiment: as §1; format: functional, cell-based
T2 sequence (P30542 whole entry): T1 sequence (whole entry)

[3] = target: T1, Adenosine receptor A1 (Homo sapiens); experiment: Binding affinity to human adenosine A1 receptor expressed in CHO cells at 100 nM after 30 mins by confocal microscopy in presence of DPCPX; format: cell-based
[4] = target: T1, Adenosine receptor A1 (Homo sapiens); experiment: (§2) Agonist activity at human adenosine A1 receptor expressed in CHO cells assessed as Gs-mediated activation of forskolin-stimulated SPAP secretion incubated for 10 mins prior to forskolin challenge measured after 5 hrs by spectrophotometry; format: functional, cell-based
[5] = target: T2, Adenosine receptor A1; experiment: as §2; format: functional, cell-based
[6] = target: T1, Adenosine receptor A1 (Homo sapiens); experiment: (§3) Displacement of [3H]DPCPX from human adenosine A1 receptor expressed in CHO cells after 2 hrs by scintillation counting analysis relative to control; format: cell-based
[7] = target: T2, Adenosine receptor A1; experiment: as §3; format: cell-based
[8] = target: T1, Adenosine receptor A1 (Homo sapiens); experiment: Agonist activity at human adenosine A1 receptor expressed in CHO cells assessed as Gi-mediated inhibition of forskolin-stimulated SPAP secretion incubated for 10 mins prior to forskolin challenge measured after 5 hrs in presence of 1 uM adenosine A1 receptor antagonist XAC by spectrophotometry; format: functional, cell-based
[9] = target: T1, Adenosine receptor A1 (Homo sapiens); experiment: Binding affinity to human adenosine A1 receptor expressed in CHO cells assessed as internalization at 100 nM after 30 mins by confocal microscopy; format: cell-based
[10] = target: T1, Adenosine receptor A1 (Homo sapiens); experiment: Agonist activity at human adenosine A1 receptor expressed in CHO cells assessed as Gs-mediated activation of forskolin-stimulated SPAP secretion up to 10^-5 M incubated for 10 mins prior to forskolin challenge measured after 5 hrs by spectrophotometry; format: functional, cell-based
[11] = target: T1, Adenosine receptor A1 (Homo sapiens); experiment: Binding affinity to human adenosine A1 receptor expressed in CHO cells at 100 nM after 30 mins by confocal microscopy; format: cell-based

Row | SMILES | inhibition [1] [%] | IC50 [2] [nM] | Activity [3] | Activity [4] | EC50 [5] [nM] | Activity [6] [%] | Ki [7] [nM] | Activity [8] | Activity [9] | Activity [10] | Activity [11]
1 | CCNC(=O)[C@H]1O[C@@H](n2cnc3c(NCCCCNC(=O)COc4ccc(/C=C/C5=[N+]6C(=Cc7ccc(-c8cccs8)n7[B-]6(F)F)C=C5)cc4)ncnc32)[C@H](O)[C@@H]1O | 101 | 5.25 | inactive | 155% | 2340 | 43 | 263 | inactive | – | – | –
2 | CCNC(=O)[C@H]1O[C@@H](n2cnc3c(NCCOCCOCCOCCNC(=O)COc4ccc(/C=C/C5=[N+]6C(=Cc7ccc(-c8cccs8)n7[B-]6(F)F)C=C5)cc4)ncnc32)[C@H](O)[C@@H]1O | 99 | 191 | – | inactive | – | – | – | inactive | – | – | –
3 | CCNC(=O)[C@H]1O[C@@H](n2cnc3c(NCCCCCCCCCCCNC(=O)COc4ccc(/C=C/C5=[N+]6C(=Cc7ccc(-c8cccs8)n7[B-]6(F)F)C=C5)cc4)ncnc32)[C@H](O)[C@@H]1O | – | 129 | inactive | inactive | – | – | – | inactive | Active | inactive | –
4 | CCNC(=O)[C@H]1O[C@@H](n2cnc3c(NCCCNC(=O)COc4ccc(/C=C/C5=[N+]6C(=Cc7ccc(-c8cccs8)n7[B-]6(F)F)C=C5)cc4)ncnc32)[C@H](O)[C@@H]1O | 97 | 0.49 | inactive | 188% | 263 | 59 | 417 | inactive | – | – | Active
5 | CCNC(=O)[C@H]1O[C@@H](n2cnc3c(NCCNC(=O)COc4ccc(/C=C/C5=[N+]6C(=Cc7ccc(-c8cccs8)n7[B-]6(F)F)C=C5)cc4)ncnc32)[C@H](O)[C@@H]1O | 100 | 2.04 | inactive | 64% | 234 | 50 | 363 | inactive | – | – | Active
6 | CCNC(=O)[C@H]1O[C@@H](n2cnc3c(NCCOCCOCCNC(=O)COc4ccc(/C=C/C5=[N+]6C(=Cc7ccc(-c8cccs8)n7[B-]6(F)F)C=C5)cc4)ncnc32)[C@H](O)[C@@H]1O | 102 | 74.1 | inactive | inactive | – | – | – | inactive | – | – | Active
7 | CCNC(=O)[C@H]1O[C@@H](n2cnc3c(N)ncnc32)[C@H](O)[C@@H]1O | 105 | – | – | 177% | – | 73 | – | inactive | – | – | –
8 | CCNC(=O)[C@H]1O[C@@H](n2cnc3c(NCCCCCCCCNC(=O)COc4ccc(/C=C/C5=[N+]6C(=Cc7ccc(-c8cccs8)n7[B-]6(F)F)C=C5)cc4)ncnc32)[C@H](O)[C@@H]1O | – | 26.9 | inactive | inactive | – | – | – | inactive | – | inactive | –
